Reference: patent US8652518B2, “Compositions and methods for the prevention and treatment of diseases or conditions associated with oxidative stress, inflammation, and metabolic dysregulation” (priority 2012, dated 2014)

Assays:
[1] = system: thyroid nodule localized to the right side of the thyroid gland; assay: Case 2: subject with thyroid nodule given the preferred embodiment; format: in vivo; conditions: increasing doses, before the preferred embodiment
Excerpt: […]

sarcoma S-180 cells = conditions: high dose; cited from earlier work
bFGF = conditions: mice with the highest survival rates; cited from earlier work
VEGF = conditions: mice with the highest survival rates; cited from earlier work
MMP2 = conditions: mice with the highest survival rates; cited from earlier work
[2] = system: atrophic or neovascular AMD; conditions: group with the highest dietary intake of either carotenoid; cited from earlier work

Which “effect on growth of the thyroid nodule” value [1] does the source give for `N[C@@H](Cc1cc(I)c(Oc2cc(I)c(O)c(I)c2)c(I)c1)C(=O)O` [levothyroxine sodium] here?
The value was “did not seem to inhibit the growth of the nodule”.

With `O=C1O[C@H]([C@@H](O)CO)C(O)=C1O` [vitamin C, ascorbic acid] as the compound, how does the “increase of survival rate as compared to control models” value (sarcoma S-180 cells) read?
Its value is 20%.

What about the “inhibition of expression of bFGF gene” value (bFGF) of the same compound?
Its value is 0.3 times.

What about the “inhibition of expression of VEGF gene” value (VEGF) of the same compound?
The value was 7 times.

What about the “inhibition of expression of MMP2 gene” value (MMP2) of the same compound?
Its value is 4 times.

Which “reduction in the risk of developing atrophic or neovascular AMD” value [2] does the source give for `CC1=C(/C=C/C(C)=C/C=C/C(C)=C/C=C/C=C(C)/C=C/C=C(C)/C=C/C2=C(C)C[C@@H](O)CC2(C)C)C(C)(C)C[C@H](O)C1` [zeaxanthin] here?
Its value is “forty”.

For `CC1=C[C@H](O)CC(C)(C)[C@H]1/C=C/C(C)=C/C=C/C(C)=C/C=C/C=C(C)/C=C/C=C(C)/C=C/C1=C(C)C[C@@H](O)CC1(C)C` [lutein], which “reduction in the risk of developing atrophic or neovascular AMD” value [2] is on record?
Its value is “forty”.
